Activity calls are given as the source filed them. The rule behind the calls is not given here.
What was measured:
[1] = target: T1, Extracellular calcium-sensing receptor (Homo sapiens, UniProt P41180); test: Antagonist activity at calcium sensing receptor (unknown origin) by cell based FLIPR assay; type: functional
T1 sequence (P41180 whole entry): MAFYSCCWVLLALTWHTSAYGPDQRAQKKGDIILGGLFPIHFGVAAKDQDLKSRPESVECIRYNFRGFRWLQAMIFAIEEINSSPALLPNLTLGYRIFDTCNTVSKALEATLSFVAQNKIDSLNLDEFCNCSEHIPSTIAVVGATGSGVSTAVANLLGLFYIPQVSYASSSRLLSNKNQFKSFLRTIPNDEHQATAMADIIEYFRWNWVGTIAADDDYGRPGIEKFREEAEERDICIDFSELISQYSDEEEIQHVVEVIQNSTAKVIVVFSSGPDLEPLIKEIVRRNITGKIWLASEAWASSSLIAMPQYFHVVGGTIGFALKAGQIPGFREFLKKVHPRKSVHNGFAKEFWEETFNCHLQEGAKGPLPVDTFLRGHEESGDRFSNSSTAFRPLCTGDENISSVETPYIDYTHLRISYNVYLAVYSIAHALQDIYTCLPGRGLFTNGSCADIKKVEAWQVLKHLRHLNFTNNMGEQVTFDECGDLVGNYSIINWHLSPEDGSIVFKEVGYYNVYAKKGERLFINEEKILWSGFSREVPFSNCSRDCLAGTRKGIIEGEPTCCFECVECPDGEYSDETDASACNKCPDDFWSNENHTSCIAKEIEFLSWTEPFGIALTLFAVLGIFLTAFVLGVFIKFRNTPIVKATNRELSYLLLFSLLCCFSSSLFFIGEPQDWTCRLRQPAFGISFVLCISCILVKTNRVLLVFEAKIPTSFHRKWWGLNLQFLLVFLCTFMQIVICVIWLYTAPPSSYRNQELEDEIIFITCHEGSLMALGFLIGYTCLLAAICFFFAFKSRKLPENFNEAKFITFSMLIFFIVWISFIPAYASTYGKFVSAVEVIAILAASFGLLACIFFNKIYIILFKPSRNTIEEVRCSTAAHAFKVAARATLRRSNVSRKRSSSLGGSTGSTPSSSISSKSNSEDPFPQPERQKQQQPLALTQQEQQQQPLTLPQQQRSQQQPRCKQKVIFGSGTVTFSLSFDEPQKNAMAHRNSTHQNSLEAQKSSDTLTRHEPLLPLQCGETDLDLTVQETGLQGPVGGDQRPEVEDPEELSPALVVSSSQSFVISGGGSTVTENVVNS

[2] = Cmax in Sprague-Dawley rat at 2 mg/kg, iv or 5 mg/kg, po; type: ADME, organism-based; settings: in vivo
[3] = tested on: Rattus norvegicus; test: Stimulation of parathyroid hormone release in overnight fasted Sprague-Dawley rat serum at 30 mg/kg, po measured after 2 hrs by ELISA; type: functional, organism-based
[4] = Tmax in Sprague-Dawley rat at 2 mg/kg, iv or 5 mg/kg, po; type: ADME, organism-based; settings: in vivo
[5] = Clearance in Sprague-Dawley rat plasma at 2 mg/kg, iv or 5 mg/kg, po; type: ADME, organism-based
[6] = tested on: Rattus norvegicus; test: Stimulation of parathyroid hormone release in overnight fasted Sprague-Dawley rat serum at 30 mg/kg, po measured within 1 hour by ELISA relative to vehicle treated control; type: functional
[7] = tested on: Rattus norvegicus; test: Stimulation of parathyroid hormone release in po dosed overnight fasted Sprague-Dawley rat serum after 7 days by ELISA; type: functional, organism-based
[8] = Oral bioavailability in Sprague-Dawley rat at 5 mg/kg; type: ADME, organism-based; settings: in vivo
[9] = Half life in Sprague-Dawley rat at 2 mg/kg, iv or 5 mg/kg, po; type: ADME, organism-based; settings: in vivo

Row | SMILES | IC50 [1] [nM] | also measured
1 | Cc1ccc([C@@H](C)OC[C@H](O)CNC(C)(C)Cc2ccc3ccccc3c2)c2c1O[C@H]1[C@H](C(=O)O)[C@@H]21 | 21.6 | –
2 | Cc1ccc([C@@H](C)OC[C@H](O)CNC(C)(C)Cc2ccc3c(c2)CCS3(=O)=O)c2c1O[C@@H]1[C@@H](C(=O)O)[C@H]21 | > 10000 | –
3 | Cc1ccc(CC(C)(C)NC[C@@H](O)CO[C@H](C)c2ccc(C)c3c2[C@@H]2[C@H](O3)[C@H]2C(=O)O)cc1C | 17.7 | –
4 | Cc1ccc([C@@H](C)OC[C@H](O)CNC(C)(C)CCSc2ccccc2)c2c1O[C@@H]1[C@@H](C(=O)O)[C@H]21 | 50.8 | –
5 | Cc1ccc([C@@H](C)OC[C@H](O)CNC(C)(C)Cc2ccc3ncccc3c2)c2c1O[C@@H]1[C@@H](C(=O)O)[C@H]21 | 457 | –
6 | Cc1ccc([C@@H](C)OC[C@H](O)CNC(C)(C)Cc2ccc3ccccc3c2)c2c1O[C@@H]1[C@@H](C(=O)O)[C@H]21 | 7.45 | –
7 | Cc1ccc(C(C)OC[C@H](O)CNC(C)(C)Cc2ccc3ccccc3c2)c2c1OC1C(C(=O)O)C21 (stereo partly specified) | 64.3 | –
8 | Cc1ccc([C@@H](C)OC[C@H](O)CNC(C)(C)Cc2ccc3sccc3c2)c2c1O[C@@H]1[C@@H](C(=O)O)[C@H]21 | 9.62 | –
9 | CSc1ccc(CC(C)(C)NC[C@@H](O)CO[C@H](C)c2ccc(C)c3c2[C@@H]2[C@H](O3)[C@H]2C(=O)O)cc1F | 27.6 | Cmax [2]: 170 nM; Activity [3]: inactive; Tmax [4]: < 1 h; clearance [5]: 40.2 mL/min/kg; fold change (FC) [6]: 3; Activity [7]: Dose-dependent effect; bioavailability [8]: 6.9%; half-life [9]: 1.9 h
10 | COc1ccc(CC(C)(C)NC[C@@H](O)CO[C@H](C)c2ccc(C)c3c2[C@@H]2[C@H](O3)[C@H]2C(=O)O)c(Cl)c1 | 19.6 | Cmax [2]: 300 nM; clearance [5]: 41 mL/min/kg; bioavailability [8]: 16.5%; half-life [9]: 2.9 h
11 | Cc1ccc(C(C)OC[C@H](O)CNC(C)(C)Cc2ccc(Cl)c(F)c2)c2c1OC1C(C(=O)O)C21 (stereo partly specified) | 203 | –
12 | Cc1ccc(C(C)OC[C@H](O)CNC(C)(C)CC2Cc3ccccc3C2)c2c1OC1C(C(=O)O)C21 (stereo partly specified) | 117 | –
13 | CSc1ccc(CC(C)(C)NC[C@@H](O)CO[C@H](C)c2ccc(C)c3c2[C@@H]2[C@H](O3)[C@H]2C(=O)O)cc1 | 39.3 | –
14 | Cc1ccc([C@@H](C)OC[C@H](O)CNC(C)(C)CCCc2ccccc2)c2c1O[C@@H]1[C@@H](C(=O)O)[C@H]21 | 28.4 | –
